Each structure is given as a SMILES string. pIC50: −log10 of the molar value.

The test system of data set [1] is 7SM0032. Description: TUNEL assay (apoptosis). Type of data set: cell-based, human. The settings on record: 7SM0032 cells, 500 nM, 24 h. The method, then: (§1) To measure the effect of the compounds on cell growth, cells were seeded at 3×10^4/ml into a 96-well plate. Once attached, cells were treated with various concentrations of AOH1160 for 72 h. Cell growth was measured by the CellTitor-Glo assay (Promega, Madison, WI) according to the manufacturer's instructions. To measure apoptosis, cells were seeded at 1×10^5/ml onto a chamber slide. Once attached, cells were treated with the 500 nM AOH1160 for 24 h. Cells were fixed and analyzed by a TUNEL assay using the TMR red in situ cell death detection kit (Roche Diagnostics, Indianapolis, IN).

The subject of data set [2] is brain tumors. The data set is described as follows: Brain tumors in mice, luciferase imaging. Type of data set: in vivo. The settings on record: given once weekly to tumor bearing mice. The protocol:
FIG. 12. Effects of AOH1160 on brain tumors in mice. The compound was given to tumor bearing mice once weekly. The brain cancer cells used in this study contains a luciferase. For measuring tumor growth, luciferin was injected into each mouse. The relative growth of the tumors in live mice was determined by measuring luminescent signals by a CCD camera.
The compound (AOH1160) was give into tumor bearing mice once weekly. The brain cancer cells used in this study contains a luciferase. For measuring tumor growth, luciferin was injected into each mouse. The relative growth of the tumors in live mice was determined by measuring luminescent signals by a CCD camera.

The subject of data set [3] is SK-N-DZ. The data set is described as follows: Cell cycle analysis (PI, flow cytometry). The settings on record: NB cells (SK-N-DZ), 500 nM. In kind it is cell-based, human. The method, then:
Cells were seeded at 1×10^5/ml in a 6-well plate. Once attached overnight, cells were treated with or without AOH1160 for 6 or 24 h. After being fixed in 60% ethanol and stained with propidium iodide (PI), cells were analyzed by flow cytometry to determine the cellular PI fluorescence intensity. The flow cytometry data were analyzed by the FlowJo program to model various cell populations.

Data set [4] in a line: Stability in plasma. In kind it is in vitro ADME. An excerpt:
FIGS. 8A-8B. FIG. 8A depicts an illustration of AOH1160 degradation by amide cleavage in mouse plasma. FIG. 8B depicts the stability of AOH1160 in human and animal plasma. […] AOH1160 is stable in the plasma of canine, monkey, and human, as well as in the plasma of ES-1-deficient mice (Es1e/SCID).
AOH1160 was degraded in the plasma collected from a wildtype Balb/c mouse, see FIGS. 8A-8B. […] AOH1160 is stable in the plasma of canine, monkey, and human, as well as in the plasma of ES-1-deficient mice (Es1e/SCID).

In data set [5] the test system is NCI-60 panel. The data set is described as follows: NCI-60 panel test, median over the panel. Type of data set: cell-based. The settings on record: 60 cancer cell lines, 5-dose study. The protocol:
FIG. 7. NCI-60 panel test. The effect of AOH1160 on growth of the NCI-60 panel, which consists of 60 cancer cell lines representing 9 major cancer types, was tested in a 5-dose study. Shown are the Log IC50 values determined for each cell line. […] This study was performed by the National Institute of Cancer.
As observed in FIG. 7, the effect of AOH1160 on growth of the NCI-60 panel, which consists of 60 cancer cell lines representing 9 major cancer types, was tested in a 5-dose study. Shown are the Log IC50 values determined for each cell line.

In data set [6] the test system is γH2A.X in 7SM0032 cells. The data set is described as follows: Western blot. The settings on record: 500 nM. In kind it is cell-based, human. The method, then: (§2) Cells were dissolved into the Laemmli sample buffer on the plate. The whole cell extracts were sonicated, and the proteins in the lysate were resolved using a 4-12% SDS polyacrylamide gel, and the resolved proteins were blotted onto a nitrocellulose membrane. Antibodies specific to H2A.X, cleaved caspase-3, full-length caspase-3, or cleaved caspase-9 were purchased from Cell Signaling Technology (Danvers, MA). The anti-γH2A.X antibody was purchased from Millipore. The membrane was blocked with 5% nonfat dry milk and incubated individually with each of these antibodies dissolved in the blocking buffer. After incubation with peroxidase-conjugated secondary antibodies, the protein of interest was detected using an ECL kit purchased from Thermo Fisher Scientific (Waltham, MA).
(In general: In western blotting, separated proteins are transferred to a membrane and probed.)

In data set [7] the test system is γH2A.X, caspase-3 and caspase-9 in SK-N-DZ cells. Description: Western blot. The settings on record: NB cells (SK-N-DZ), 500 nM. In kind it is cell-based, human. The protocol: as §2
In data set [8] the test system is SK-N-DZ. The data set is described as follows: TUNEL assay / sub-G1 population (apoptosis). In kind it is cell-based, human. The settings on record: NB cells (SK-N-DZ), 500 nM, 24 h. The protocol: as §1
The test system of data set [9] is MDA-MB-436 xenograft tumor. Description: Xenograft of a triple-negative breast cancer cell line in Es1e/SCID mice. The settings on record: 40 mg/kg once daily. Type of data set: in vivo. The protocol: FIGS. 10A-10B. Inhibition of the growth xenograft tumor derived from a triple-negative breast cancer cell line (MDA-MB-436). Mice bearing xenograft tumors were given vehicle only or 40 mg/kg of AOH1160 through the study. Shown are tumor volumes (FIG. 10A) and mouse body weights (FIG. 10B) in the course of the study. The Es1e/SCID mice used in this study were treated by vehicle only (diamond) or by 40 mg/kg AOH1160 (square) once daily.
Inhibition of the growth xenograft tumor derived from a triple-negative breast cancer cell line (MDA-MB-436). Mice bearing xenograft tumors were given vehicle only or 40 mg/kg of AOH1160 through the study. Shown are tumor volumes (FIG. 10A) and mouse body weights (FIG. 10B) in the course of the study. The Es1e/SCID mice used in this study were treated by vehicle only (diamond) or by 40 mg/kg AOH1160 (square) once daily.

One may read the pIC50 as the negative decadic logarithm of the IC50, by convention in mol/L. In the case of `O=C(CNC(=O)c1cccc2ccccc12)Nc1ccccc1Oc1ccccc1` [AOH1160], the apoptosis entry was “Nor does it increase intracellular γH2A.X level (FIG. 2B) or cause apoptosis” in data set [1]; “apoptosis as indicated by the increase in the sub-G1 population (FIG. 2A) and TUNEL positivity” in data set [8]. The “brain tumor growth (luminescent signals)” value in data set [2] is “inhibited brain tumor growth”. Moreover, the cell cycle effect result in data set [3] is listed as “causes cell cycle arrest”. The stability in plasma entry in data set [4] (canine plasma) is given as “stable”; in data set [4] (human plasma) it was “stable”; in data set [4] (monkey plasma), “stable”; in [4] (plasma of ES-1-deficient mice (Es1e/SCID)), “stable”; in data set [4] (wildtype Balb/c mouse plasma) it was “quickly degraded”. Moreover, in data set [5], the pIC50 is about 6.49. Besides, the “intracellular γH2A.X level” value in [6] is recorded as “Nor does it increase intracellular γH2A.X level”. Further, the caspase activation entry in [7] is “activation of caspase-3 and caspase-9”. Besides, the γH2A.X levels result in data set [7] is “increases γH2A.X levels”. The weight loss entry in data set [9] is “caused no significant weight loss”. Besides, the “tumor growth (tumor volumes)” value in data set [9] (vs vehicle) was “inhibited tumor growth”.

The values above are taken from patent US12054447B2, “PCNA inhibitors” (City of Hope, priority 2015, dated 2024).
